We go through six compounds from ChEMBL document CHEMBL5465560, “Selectivity Literature for EUbOPEN Chemogenomic Library” (2024).

One data set deals with hERG (KCNH2) (Homo sapiens, UniProt Q12809). Put plainly: Selectivity interaction (Eurofins CEREP Diversity Profile (receptors and ion channels)) EUB0000279b KCNH2. As to conditions: at 10 µM, read-out: % of control.
The target of data set [1] is T1, Hormonally up-regulated neu tumor-associated kinase (Homo sapiens) (UniProt P57058).
T1 sequence (whole entry): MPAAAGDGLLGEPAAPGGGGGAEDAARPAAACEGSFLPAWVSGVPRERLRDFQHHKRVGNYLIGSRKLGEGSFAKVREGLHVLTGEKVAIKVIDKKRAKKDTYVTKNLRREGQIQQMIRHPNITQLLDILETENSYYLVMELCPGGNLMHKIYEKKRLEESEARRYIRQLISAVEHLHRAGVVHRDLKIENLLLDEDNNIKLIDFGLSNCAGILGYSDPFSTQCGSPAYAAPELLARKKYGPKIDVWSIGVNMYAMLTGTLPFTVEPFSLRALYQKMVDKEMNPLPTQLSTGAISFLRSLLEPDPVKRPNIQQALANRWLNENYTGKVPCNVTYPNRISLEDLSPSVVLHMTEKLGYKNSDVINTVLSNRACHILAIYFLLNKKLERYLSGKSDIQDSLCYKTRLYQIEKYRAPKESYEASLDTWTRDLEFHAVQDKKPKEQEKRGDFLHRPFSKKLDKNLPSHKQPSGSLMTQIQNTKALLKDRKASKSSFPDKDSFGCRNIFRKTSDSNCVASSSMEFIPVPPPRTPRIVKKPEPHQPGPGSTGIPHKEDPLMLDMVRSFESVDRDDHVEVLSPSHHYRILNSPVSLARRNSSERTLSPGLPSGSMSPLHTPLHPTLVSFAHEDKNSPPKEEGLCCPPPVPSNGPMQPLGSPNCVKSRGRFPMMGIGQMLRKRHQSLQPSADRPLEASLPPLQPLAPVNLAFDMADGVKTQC
Put plainly: Selectivity interaction (KinomeScan (DiscoverX)) EUB0000695a HUNK. Particulars: at 100 nM.

The target of data set [2] is T2, MAP/microtubule affinity-regulating kinase 4 (Homo sapiens) (UniProt Q96L34).
T2 sequence (whole entry): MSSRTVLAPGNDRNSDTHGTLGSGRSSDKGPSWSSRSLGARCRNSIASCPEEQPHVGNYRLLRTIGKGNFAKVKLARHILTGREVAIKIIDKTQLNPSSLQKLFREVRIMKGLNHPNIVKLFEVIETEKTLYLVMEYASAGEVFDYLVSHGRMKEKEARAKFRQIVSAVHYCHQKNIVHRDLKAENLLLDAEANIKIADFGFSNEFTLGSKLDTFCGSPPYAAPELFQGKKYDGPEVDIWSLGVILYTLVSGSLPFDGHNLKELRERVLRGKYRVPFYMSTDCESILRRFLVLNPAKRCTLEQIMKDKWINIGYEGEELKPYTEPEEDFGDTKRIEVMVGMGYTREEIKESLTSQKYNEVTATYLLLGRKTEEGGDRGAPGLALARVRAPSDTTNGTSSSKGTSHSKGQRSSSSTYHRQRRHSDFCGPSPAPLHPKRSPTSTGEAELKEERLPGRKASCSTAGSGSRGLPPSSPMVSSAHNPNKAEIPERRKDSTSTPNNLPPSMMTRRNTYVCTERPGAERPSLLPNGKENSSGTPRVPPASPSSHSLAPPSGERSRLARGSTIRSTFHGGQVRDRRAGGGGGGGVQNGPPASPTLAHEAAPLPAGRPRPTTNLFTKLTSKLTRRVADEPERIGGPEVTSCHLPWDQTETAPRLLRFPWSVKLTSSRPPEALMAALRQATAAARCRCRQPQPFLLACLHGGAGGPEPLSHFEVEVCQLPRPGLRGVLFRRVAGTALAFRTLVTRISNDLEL
Put plainly: Selectivity interaction (KinomeScan (DiscoverX)) EUB0000666a MARK4. As to conditions: at 10 µM.

Data set [3] has as its target T3, Protein kinase C iota type (Homo sapiens) (UniProt P41743).
T3 sequence (whole entry): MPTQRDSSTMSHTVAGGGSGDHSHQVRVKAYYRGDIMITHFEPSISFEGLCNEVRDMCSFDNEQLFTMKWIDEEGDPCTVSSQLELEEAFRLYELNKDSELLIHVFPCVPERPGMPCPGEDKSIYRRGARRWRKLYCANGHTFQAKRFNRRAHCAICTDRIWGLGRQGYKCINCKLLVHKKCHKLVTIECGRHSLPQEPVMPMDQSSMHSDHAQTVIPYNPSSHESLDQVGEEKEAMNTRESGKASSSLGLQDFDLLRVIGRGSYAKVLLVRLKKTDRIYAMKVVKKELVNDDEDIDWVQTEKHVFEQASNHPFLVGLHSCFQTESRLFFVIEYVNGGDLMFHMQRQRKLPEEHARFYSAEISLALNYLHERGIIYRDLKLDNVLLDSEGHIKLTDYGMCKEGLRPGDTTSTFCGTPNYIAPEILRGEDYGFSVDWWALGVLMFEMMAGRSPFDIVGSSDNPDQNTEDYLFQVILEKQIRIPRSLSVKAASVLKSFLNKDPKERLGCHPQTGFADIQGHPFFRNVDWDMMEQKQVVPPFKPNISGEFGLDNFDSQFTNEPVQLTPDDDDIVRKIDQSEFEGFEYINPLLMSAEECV
Put plainly: Selectivity interaction (KinomeScan (DiscoverX)) EUB0000607a PRKCI. As to conditions: at 10 µM.

Data set [4] deals with Serine/threonine-protein kinase 24 (Homo sapiens) (UniProt Q9Y6E0). The data set is described as follows: Selectivity interaction (ProQinase) EUB0000171b STK24.
Serine/threonine-protein kinase 24 (Homo sapiens), sequence (Q9Y6E0 whole entry, looked up): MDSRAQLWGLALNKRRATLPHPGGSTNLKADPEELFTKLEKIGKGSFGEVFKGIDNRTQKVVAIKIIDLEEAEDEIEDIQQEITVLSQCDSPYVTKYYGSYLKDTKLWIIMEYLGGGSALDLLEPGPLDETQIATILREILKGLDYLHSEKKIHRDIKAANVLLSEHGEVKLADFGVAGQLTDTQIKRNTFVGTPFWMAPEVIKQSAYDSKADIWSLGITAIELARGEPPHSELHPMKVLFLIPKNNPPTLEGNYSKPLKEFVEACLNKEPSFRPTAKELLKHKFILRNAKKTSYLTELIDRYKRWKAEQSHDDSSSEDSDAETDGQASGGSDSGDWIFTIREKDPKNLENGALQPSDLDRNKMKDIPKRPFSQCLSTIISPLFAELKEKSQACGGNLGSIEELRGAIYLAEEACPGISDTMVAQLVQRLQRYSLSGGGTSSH
The target of data set [5] is Serine/threonine-protein kinase N2 (Homo sapiens, UniProt Q16513). The data set is described as follows: Selectivity interaction (KinomeScan (DiscoverX)) EUB0001049a PKN2. Particulars: at 1 µM.
Serine/threonine-protein kinase N2, sequence (Q16513 whole entry, looked up): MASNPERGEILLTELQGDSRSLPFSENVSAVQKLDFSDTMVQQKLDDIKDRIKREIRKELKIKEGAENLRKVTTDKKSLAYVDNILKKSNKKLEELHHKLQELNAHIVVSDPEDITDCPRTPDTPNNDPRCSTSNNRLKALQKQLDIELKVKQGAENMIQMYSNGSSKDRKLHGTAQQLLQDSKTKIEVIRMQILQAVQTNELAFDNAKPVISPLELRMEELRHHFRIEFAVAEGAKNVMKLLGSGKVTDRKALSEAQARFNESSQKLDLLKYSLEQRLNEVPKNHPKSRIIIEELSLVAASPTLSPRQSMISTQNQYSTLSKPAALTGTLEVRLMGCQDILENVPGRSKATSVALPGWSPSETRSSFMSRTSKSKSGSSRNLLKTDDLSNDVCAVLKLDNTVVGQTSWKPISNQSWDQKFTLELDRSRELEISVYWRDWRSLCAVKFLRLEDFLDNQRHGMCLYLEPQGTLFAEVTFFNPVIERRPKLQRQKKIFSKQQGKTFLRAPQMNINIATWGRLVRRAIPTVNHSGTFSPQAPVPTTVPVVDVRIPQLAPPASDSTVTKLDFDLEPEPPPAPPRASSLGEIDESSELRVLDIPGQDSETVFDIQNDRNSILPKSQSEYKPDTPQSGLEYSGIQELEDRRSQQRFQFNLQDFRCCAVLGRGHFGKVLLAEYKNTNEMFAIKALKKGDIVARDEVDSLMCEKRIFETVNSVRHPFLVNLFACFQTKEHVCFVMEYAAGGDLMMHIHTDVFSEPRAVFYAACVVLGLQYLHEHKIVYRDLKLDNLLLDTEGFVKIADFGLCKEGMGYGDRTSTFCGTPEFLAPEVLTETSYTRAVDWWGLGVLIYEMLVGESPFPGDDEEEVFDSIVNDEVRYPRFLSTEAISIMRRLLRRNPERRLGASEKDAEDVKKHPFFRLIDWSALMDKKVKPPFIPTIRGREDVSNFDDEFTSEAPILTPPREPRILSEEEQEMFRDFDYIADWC

hERG (KCNH2), sequence (Q12809 whole entry): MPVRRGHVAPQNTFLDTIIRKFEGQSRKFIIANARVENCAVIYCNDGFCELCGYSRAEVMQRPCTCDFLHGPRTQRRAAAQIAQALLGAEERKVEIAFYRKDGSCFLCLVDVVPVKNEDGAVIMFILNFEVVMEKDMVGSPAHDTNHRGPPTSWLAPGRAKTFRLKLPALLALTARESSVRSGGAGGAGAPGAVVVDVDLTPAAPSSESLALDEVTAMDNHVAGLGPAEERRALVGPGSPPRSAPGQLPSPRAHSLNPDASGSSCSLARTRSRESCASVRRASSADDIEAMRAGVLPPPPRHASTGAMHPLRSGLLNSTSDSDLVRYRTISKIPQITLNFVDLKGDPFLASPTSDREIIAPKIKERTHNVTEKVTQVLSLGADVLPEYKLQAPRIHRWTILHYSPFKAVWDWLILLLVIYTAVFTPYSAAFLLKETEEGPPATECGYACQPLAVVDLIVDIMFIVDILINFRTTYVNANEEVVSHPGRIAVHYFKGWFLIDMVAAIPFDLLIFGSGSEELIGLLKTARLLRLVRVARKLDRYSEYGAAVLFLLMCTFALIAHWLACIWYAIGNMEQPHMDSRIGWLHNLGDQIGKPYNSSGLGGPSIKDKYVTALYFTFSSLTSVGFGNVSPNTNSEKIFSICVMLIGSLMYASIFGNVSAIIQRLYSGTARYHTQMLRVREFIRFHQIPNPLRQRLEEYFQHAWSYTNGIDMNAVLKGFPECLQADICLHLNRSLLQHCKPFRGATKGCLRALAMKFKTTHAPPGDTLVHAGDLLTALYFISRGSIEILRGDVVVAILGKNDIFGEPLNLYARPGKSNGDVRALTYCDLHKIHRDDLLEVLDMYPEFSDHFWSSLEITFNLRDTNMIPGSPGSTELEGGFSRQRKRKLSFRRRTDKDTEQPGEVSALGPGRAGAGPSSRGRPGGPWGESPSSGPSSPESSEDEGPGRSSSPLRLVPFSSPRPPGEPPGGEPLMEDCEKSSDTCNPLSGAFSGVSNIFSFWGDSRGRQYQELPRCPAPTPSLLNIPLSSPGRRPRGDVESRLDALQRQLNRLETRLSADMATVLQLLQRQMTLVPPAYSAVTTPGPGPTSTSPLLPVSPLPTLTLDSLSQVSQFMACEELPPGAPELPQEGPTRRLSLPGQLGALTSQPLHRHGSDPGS

For `CC(=O)c1cc(-c2ccccc2OCC2CC2)c2ncccn12`, the activity on hERG (KCNH2) came out at 111%. In turn, `Cc1cc(F)c(C(=O)Nc2cccc(-c3nncn3C(C)C)n2)cc1-n1cnc(C2CC2)c1` showed a % of control in data set [1] of 100%.

`O=C(NOC[C@H](O)CO)c1ccc(F)c(F)c1Nc1ccc(I)cc1F`: in data set [2], the % of control worked out at 100%. Turning to `CNC(=O)Nc1ccc(-c2nc(N3CC4CCC(C3)O4)c3cnn(C4CCC5(CC4)OCCO5)c3n2)cc1`, the % of control in data set [3] worked out at 67%. Take `C=CC(=O)Nc1cccc(C(=O)Nc2ccc(Nc3cc(-c4[nH]c(SC)nc4C)ccn3)cc2)c1`: the figures for the % of control in data set [4] (at 1 µM) and in data set [4] (at 5 µM) were 85% and 89%, respectively. In data set [5], `COc1cc(Nc2nc(C)cc(-c3cnn4nc(OC)ccc34)n2)cc(C(F)(F)F)c1` registered a % of control of 90%.
